# Data taken from US5484793A, “Compounds derived from 6-azaindoles as ligands of the benzodiazepine receptor and medicaments containing them” (Centre National de la Recherche Scientifique (CNRS), priority 1991, dated 1996).
# Where two headings read alike, the source gives them in different places.
# Legend:
# benzodiazepine receptor [1] = conditions: in vitro; cited from earlier work
# benzodiazepine receptor [2] = assay: In vitro affinity for the benzodiazepine receptor on rat cortex membrane; format: binding
# Experimental: A--In Vitro Tests on Cortex Membrane
# The compounds of Examples 1 to 14 were tested on rat cortex membrane in order to determine their affinity for the benzodiazepine receptor.
# [3] = tested on: GABA receptor/benzodiazepine receptor/chloride channel complexes; assay: Electrophysiological test on Xenopus oocyte (injected with chicken optical lobe mRNA), pharmacological profile; format: cell-based; conditions: for change of the potential difference (PD) of the oocyte: 10^-6 M, in 10^-5 M GABA bath; for pharmacological profile at the benzodiazepine receptor: Xenopus oocyte
# Excerpt: B--Pharmacological Property of the Compound of Example 1 Determination of the Pharmacological Profile
# This study consists of an electrophysiological test on Xenopus oocyte. The cells of chicken optical lobes fortuitously have a good response to GABA. The total RNAs are extracted therefrom and passed through an oligo(dT) affinity column, thus making it possible to separate the crude messenger RNAs therefrom, because the latter have a poly(A) end tail which will combine by complementarity with the oligo(dT) residues of the column. These messenger RNAs will then be injected into a Xenopus oocyte, which is only a one and only cell. These oocytes will then be incubated and, in two days, the messenger RNAs will be expressed and will thus, by virtue of the cell machinery of the oocyte, have produced GABA receptor/benzodiazepine receptor/chloride channel complexes. These large protein entities will then migrate in the cell and will reach the membrane, thus making it possible for this receptor and the transmembrane ion channel which is combined with it to take its place.
# The oocyte is then placed in a 10^-5 M GABA bath in Ringer solution and two microelectrodes A and B are introduced therein, a third microelectrode being placed outside the cell to act as reference. Microelectrode A will be used to measure the potential difference (PD) between the interior and the exterior of the oocyte. A PD of 60 mV is imposed on the oocyte and the microelectrode B will be used to maintain this desired PD.
# By perfusing an agonist such as diazepam, the latter and the GABA present in the medium will exert an allosteric effect at the level of the receptor with, as corollary, opening of the ion channel. There will therefore be entry of chloride into the oocyte and the PD will greatly increase. On the other hand, an inverse agonist such as β-CCM will cause a reduction in the binding of the GABA to the receptor with, as consequence, a reduction in the time of opening of the chloride channel and a lower PD.
# An antagonist will occupy the binding site of the benzodiazepine receptor but will have no effect on the binding of the GABA. The opening of the chloride channel will therefore not be disturbed and the PD will not vary.
# [4] = tested on: mice belonging to the ABP/Le strain; assay: In vivo convulsant properties in ABP/Le mice; set-up: species or system mouse; conditions: 20 mg/kg intraperitoneally, 14 mice, observation after 30 minutes
# Experimental: Compound 1 was tested first for its convulsant properties. The test was carried out on 14 mice (5 males and 9 females) aged two months belonging to the ABP/Le strain. This particular strain is very sensitive to convulsions induced by β-carbolines. Compound 1 was administered intraperitoneally at a dose of 20 mg/kg and observation took place after 30 minutes. […] The compound is therefore not convulsant.
# female Swiss mice = assay: Passive avoidance test with learning in a single test (memory); format: in vivo, mouse; conditions: 20 mg/kg intraperitoneal
# Experimental: Compound 1 was then tested on learning. This test, passive avoidance with learning in a single test, was carried out on 30 female Swiss mice aged two months. Compound 1 was administered to 15 mice at a dose of 20 mg/kg, the other 15 receiving an injection of physiological serum.
# The equipment consists of a white box connected to a black box by a door. The white box is lit by a 100 W lamp placed at a distance of 25 cm and the black box, into which the mouse will spontaneously go because she feels safe in the darkness, contains an electrified metal floor. The boxes are coated with the smell of mice by an animal placed inside before each of the two series of 15 mice. […]
# Ten minutes before learning, the marked mice receive an intraperitoneal injection of physiological serum or of Compound 1. […] The mice were then placed one by one in the illuminated white box and the arrival time in the black box is recorded. […]
# After 24 hours, the avoidance test takes place: the mouse is placed in the white box and whether or not the mouse enters the black box in three minutes is recorded without any electrical shock being caused. If the mouse enters the black box in less than three minutes, the molecule tested has not improved the acquisition of the information "black box=electric shock" but if the time recorded is greater than three minutes, the molecule is assumed to have acted.
# man = conditions: cited from earlier work
# benzodiazepine receptor [5] = conditions: cited from earlier work
# [6] = in vivo (anxiolytic, anticonvulsant, and the like); cited from earlier work
# [7] = target: central receptors of benzodiazepines; conditions: in vitro, rat brain; read-out: IC50 at central benzodiazepine receptors; cited from earlier work
# mice = conditions: facilitating convulsions caused by other agents such as pentylenetetrazole; cited from earlier work
# [8] = in vivo; cited from earlier work
# [9] = in vivo; cited from earlier work; remark: listed apart in the source
structure (smiles),measurement,setting,value
"CCOC(=O)c1cc2cc(C(=O)OCC)[nH]c2cn1 [2,5-dicarbethoxy-6-azaindole]",IC50,benzodiazepine receptor [1],84000 nM
"COC(=O)c1cc2c(COCc3ccccc3)c[nH]c2cn1 [Example 1, Methyl 3-Benzyloxymethyl-6-Azaindole-5-Carboxylate]",IC50,benzodiazepine receptor [2],750 nM
same,change of the potential difference (PD) of the oocyte,[3],slight reduction of the PD
same,pharmacological profile at the benzodiazepine receptor,[3],partial inverse agonist
same,convulsions,[4],None of the mice showed the least convulsion
same,memory-enhancing effect during the passive avoidance test,female Swiss mice,memory-enhancing effect of the compound during the passive avoidance test with learning in a single test has therefore been revealed
same,animals treated with the molecule that learnt to avoid the electric shock,female Swiss mice; 24 hours,75%
COCc1c[nH]c2cnc(C(=O)OC)cc12 [Example 2],IC50,benzodiazepine receptor [2],1500 nM
COC(=O)c1cc2c(COCc3ccccc3F)c[nH]c2cn1 [Example 3],IC50,benzodiazepine receptor [2],65 nM
COC(=O)c1cc2c(COCc3cccc(F)c3)c[nH]c2cn1 [Example 4],IC50,benzodiazepine receptor [2],100 nM
COC(=O)c1cc2c(COCc3ccc(F)cc3)c[nH]c2cn1 [Example 5],IC50,benzodiazepine receptor [2],75 nM
COC(=O)c1cc2c(COCc3ccccc3[N+](=O)[O-])c[nH]c2cn1 [Example 6],IC50,benzodiazepine receptor [2],1200 nM
COC(=O)c1cc2c(COCc3cccc([N+](=O)[O-])c3)c[nH]c2cn1 [Example 7],IC50,benzodiazepine receptor [2],1300 nM
COC(=O)c1cc2c(COCc3ccc([N+](=O)[O-])cc3)c[nH]c2cn1 [Example 8],IC50,benzodiazepine receptor [2],300 nM
COC(=O)c1cc2c(COCc3cccc(OC)c3)c[nH]c2cn1 [Example 9],IC50,benzodiazepine receptor [2],10000 nM
COC(=O)c1cc2c(COCCc3ccccc3)c[nH]c2cn1 [Example 10],IC50,benzodiazepine receptor [2],8 nM
COC(=O)c1cc2c(COCC=Cc3ccccc3)c[nH]c2cn1 [Example 11],IC50,benzodiazepine receptor [2],150 nM
"O=C(Nc1ccccc1C(=O)O)c1cc2cc[nH]c2cn1 [Example 12, 5-Phenylamido-6-Azaindole-2'-Carboxylic Acid]",IC50,benzodiazepine receptor [2],300 nM
O=C(Nc1ccccc1)c1cc2cc[nH]c2cn1 [Example 13],IC50,benzodiazepine receptor [2],7000 nM
O=C(O)c1cccc(NC(=O)c2cc3cc[nH]c3cn2)c1 [Example 14],IC50,benzodiazepine receptor [2],5500 nM
O=C(O)c1ccc(NC(=O)c2cc3cc[nH]c3cn2)cc1 [Example 15],IC50,benzodiazepine receptor [2],2300 nM
CCOC(=O)c1ncn2c1CN(C)C(=O)c1cc(F)ccc1-2 [Flumazenil],memory-enhancing properties in man,man,memory-enhancing properties were revealed
same,functional class at the benzodiazepine receptor,benzodiazepine receptor [5],antagonists of the benzodiazepine receptor
CCOC(=O)c1ncc2[nH]c3cccc(OCc4ccccc4)c3c2c1COC [ZK 91296],pharmacological profile at the benzodiazepine receptor,[3],partial agonist
same,in vivo properties compared with diazepam,[6],"properties analogous to those of diazepam in vivo (anxiolytic, anticonvulsant, and the like)"
CCOC(=O)c1ncc2[nH]c3ccc(OCc4ccccc4)cc3c2c1COC [ZK 93423],in vivo properties compared with diazepam,[6],"properties analogous to those of diazepam in vivo (anxiolytic, anticonvulsant, and the like)"
CCOC(=O)c1ncc2[nH]c3cccc(OC(C)C)c3c2c1C [ZK 93426],memory-enhancing properties in man,man,memory-enhancing properties were revealed
same,functional class at the benzodiazepine receptor,benzodiazepine receptor [5],antagonists of the benzodiazepine receptor
CN1C(=O)CN=C(c2ccccc2)c2cc(Cl)ccc21 [diazepam],change of the potential difference (PD) of the oocyte,[3],great increase
"CCOC(=O)c1cc2c(cn1)[nH]c1ccccc12 [β-CCE, ethyl ester of β-carboline-3-carboxylic acid]",IC50,[7],4 nM
same,proconvulsant effect,mice,proconvulsant in mice
COC(=O)c1cc2c(cn1)[nH]c1ccccc12 [β-CCM],change of the potential difference (PD) of the oocyte,[3],significant reduction
same,effect on learning and memory,[8],positive effect on learning and memory
same,convulsant activity,[9],highly convulsant activity
same,functional class at the benzodiazepine receptor,benzodiazepine receptor [5],inverse agonists of the benzodiazepine receptor
